Measured values taken from patent US20060287251A1, “Combination therapy for glycaemic control” (priority 2003, published 2006).

Key:
Zucker (fa/fa) rats = test: Combination therapy of glutaminyl thiazolidine with other oral antidiabetics in Zucker (fa/fa) rats; assay type: in vivo, rat; conditions: after 14 days subchronic medication; versus Control; GT 60 mg/kg b.w. b.i.d. oral
Method: Standard pelleted chow (ssniff®, Soest, Germany) and tap water acidified with HCl were allowed ad libitum. At the age of 12 weeks the animals (N=42) were divided in random order into six experimental groups to be medicated.
During the two weeks of medication morning blood glucose was measured before the 08:00 AM medication at Monday, Wednesday and Friday.
A second OGTT was performed after two weeks of medication (Day 15).

[1] = biological target: T1, Dipeptidyl Peptidase I (cathepsin C) (Rattus norvegicus, UniProt P80067); test: Cross reacting enzymes: dipeptidyl peptidase I; assay type: biochemical; conditions: concentration range 1*10^−5 M-1*10^−7 M
T1 construct: purchased Qiagen GmbH, Hilden, Germany
T1 sequence (P80067 25-462): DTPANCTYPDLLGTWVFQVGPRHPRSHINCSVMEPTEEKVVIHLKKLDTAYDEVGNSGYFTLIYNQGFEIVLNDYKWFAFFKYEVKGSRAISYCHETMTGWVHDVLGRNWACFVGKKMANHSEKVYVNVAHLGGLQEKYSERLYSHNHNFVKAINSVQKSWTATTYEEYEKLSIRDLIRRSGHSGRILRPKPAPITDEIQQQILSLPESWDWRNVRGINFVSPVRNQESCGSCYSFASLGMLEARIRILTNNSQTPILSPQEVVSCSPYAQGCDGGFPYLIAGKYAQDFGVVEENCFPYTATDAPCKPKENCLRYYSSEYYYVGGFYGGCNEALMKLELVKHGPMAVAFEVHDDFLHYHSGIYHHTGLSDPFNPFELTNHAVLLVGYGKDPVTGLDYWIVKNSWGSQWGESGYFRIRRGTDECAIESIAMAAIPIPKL
Method: Glutaminyl pyrrolidine or glutaminyl thiazolidine were tested for their cross reacting potency against dipeptidyl peptidase I, prolyl oligopeptidase and prolidase.
DP I or cathepsin C is a lysosomal cysteine protease which cleaves dipeptides from the N-terminus of their substrates (Gutman, H. R. & Fruton, J. S., 1948, J Biol. Chem., 174, 851-858). It is classified as a cysteine protease. The enzyme used was purchased from Qiagen (Qiagen GmbH, Hilden, Germany). In order to get a fully active enzyme, the enzyme was diluted 1000 fold in MES buffer pH5.6 (40 mM MES, 4 mM DTT, 4 mM KCl, 2 mM EDTA, 0.015% Brij) and pre-incubated for 30 min at 30° C. 50 μL glutaminyl pyrrolidine or glutaminyl thiazolidine in a concentration range of 1*10^−5 M-1*10^−7 M were admixed with 110 μL buffer-enzyme-mixture. The assay mixture was pre-incubated at 30° C. for 15 min After pre-incubation, 100 μL histidylseryl-para-nitroanilide (2*10^−5 M) were added and measurement of yellow color development due to para-nitroaniline release was performed at 30° C. and […] for 10 min, using a plate reader (HTS7000 plus, Applied Biosystems, Weiterstadt, Germany). The IC50-values were calculated using Graphit 4.0.15 (Erithacus Software, Ltd., UK). No inhibition of the DP I enzyme activity by glutaminyl pyrrolidine or glutaminyl thiazolidine was found.

plasma DPIV activity = biological target: T2, plasma DPIV activity (Rattus norvegicus, UniProt P14740); test: Plasma DPIV inhibiting activity after intravasal and oral administration to Wistar rats; assay type: in vivo; conditions: 100 mg/kg b.w. vs. placebo, oral and intra-vasal administration
T2 construct: from tissue; host or cells: plasma of male Wistar rats
Method: Male Wistar rats (Shoe: Wist(Sho)) with a body weight ranging between 250 and 350 g were purchased from Tierzucht Schönwalde (Schönwalde, Germany). Animals were single-caged under conventional conditions with controlled temperature (22±2° C.) on a 12/12 hours light/dark cycle (light on at 06:00 AM). Standard pelleted chow (ssniff® Soest, Germany) and tap water acidified with HCl were allowed ad libitum. After ≧one week of adaptation at the housing conditions, catheters were implanted into the carotid artery of Wistar rats under general anaesthesia (i.p. injection of 0.25 ml/kg b.w. Rompun®[2%], BayerVital, Germany and 0.5 ml/kg b.w. Ketamin 10, Atarost GmbH & Co., Twistringen, Germany). The animals were allowed to recover for one week. The catheters were flushed with heparin-saline (100 IU/ml) three times per week. In case of catheter dysfunction, a second catheter was inserted into the contra-lateral carotid artery of the respective rat. After one week of recovery from surgery, this animal was reintegrated into the study. In case of dysfunction of the second catheter, the animal was withdrawn from the study. […]
Statistical evaluations and graphics were performed with PRISM® 3.02 (GraphPad Software, Inc.). All parameters were analysed in a descriptive manner including mean and SD.

[2] = test system: diet-induced obese (DIO) rats; test: Glycaemic control (OGTT) in diet-induced obese rats with impaired glucose tolerance; assay type: in vivo, rat; conditions: glutaminyl thiazolidine hydrochloride 60 mg/kg BID, Metformin 125 mg/kg BID
Method: Selectively bred male rats, 5-6 weeks of age, displaying enhanced likelihood of developing diet-induced obesity (DIO) are selected from the breeding colony. A total of 40 DIO animals are included in the study.
Upon entry to the experiment, rats are housed individually (1 rat/cage) in a 12/12 light-dark cyldle (light from 0600-1800 h) with controlled temperature conditions (22-24° C.). […] After one week of acclimatisation, 24 h food and water intake and body-weight is measured gravimetrically twice weekly (in the morning between 8-10 am). After 3 weeks of HF feeding, average daily food consumption is calculated for all rats. The average food intake comprises a platform from which a scheduled feeding regime is implemented. […]
This test is carried out at 8:00 AM on days 6 and 42. […] Blood samples are taken from an indwelling arterial catheter and P-glucose is measured on automated analyser (Roche Diagnostics) at time points −60, −30, 0, 15, 30, 60, 120, and 180 min after oral administration of 1 g/kg glucose (using 1 g/ml dH2O). […] P-insulin is measured at time points: 0, 15, 30, 60, 120 using an ultra-sensitive ELISA (Shibayagi,Japan).
All rats are equipped with intra-arterial catheters at day −7. […] All blood samples are taken in EDTA Vacutainer tubes and plasma glucose is measured together with total Cholesterol and triacylglycerol. […]

T2 sequence (P14740 38-767 limits assumed): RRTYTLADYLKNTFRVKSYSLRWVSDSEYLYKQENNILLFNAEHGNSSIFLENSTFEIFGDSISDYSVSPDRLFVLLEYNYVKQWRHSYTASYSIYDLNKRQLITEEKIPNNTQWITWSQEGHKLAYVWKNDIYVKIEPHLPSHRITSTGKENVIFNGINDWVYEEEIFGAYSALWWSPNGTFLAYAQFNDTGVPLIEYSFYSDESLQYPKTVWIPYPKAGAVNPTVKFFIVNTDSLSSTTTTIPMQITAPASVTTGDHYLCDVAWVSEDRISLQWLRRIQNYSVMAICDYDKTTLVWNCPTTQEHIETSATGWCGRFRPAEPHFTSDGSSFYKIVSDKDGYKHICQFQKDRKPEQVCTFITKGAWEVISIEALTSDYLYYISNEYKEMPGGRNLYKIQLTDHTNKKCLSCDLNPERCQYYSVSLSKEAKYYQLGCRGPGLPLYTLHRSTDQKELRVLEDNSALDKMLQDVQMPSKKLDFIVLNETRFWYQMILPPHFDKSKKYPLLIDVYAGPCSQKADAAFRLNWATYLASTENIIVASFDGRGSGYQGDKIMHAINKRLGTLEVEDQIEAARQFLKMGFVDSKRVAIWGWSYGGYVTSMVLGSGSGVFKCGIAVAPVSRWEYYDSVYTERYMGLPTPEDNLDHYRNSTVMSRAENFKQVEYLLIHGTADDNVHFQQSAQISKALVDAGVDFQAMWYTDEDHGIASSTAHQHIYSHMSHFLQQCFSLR

| SMILES | glucose tolerance, OGTT-2 (Zucker (fa/fa) rats) | inhibition of the DP I enzyme activity [1] | plasma DPIV activity (plasma DPIV activity) | oral glucose tolerance [2] |
| --- | --- | --- | --- | --- |
| NC(=O)CC[C@H](N)C(=O)N1CCSC1 [glutaminyl thiazolidine] | improved glucose tolerance | No inhibition | inhibited plasma DPIV activity | improved oral glucose tolerance |
| NC(=O)CC[C@H](N)C(=O)N1CCCC1 [glutaminyl pyrrolidine] | – | No inhibition | inhibited plasma DPIV activity | – |
